Measurements as given in ChEMBL document CHEMBL3046816, “Development of a Novel Insecticide, Dinotefuran” (J Pestic Sci, 2005).
Values after ≈ are worked out from the molar mass of the structure shown.

Legend:
[1] = Acute toxicity in Anas platyrhynchos (mallard duck) dosed with diet; conditions: in vivo, po
[2] = Octanol-water partition coefficient, log Pow of the compound
[3] = Toxicity in female po dosed Mus musculus (mouse); conditions: in vivo
[4] = Toxicity in male po dosed Mus musculus (mouse); conditions: in vivo
[5] = Solubility in water at pH 7; conditions: buffer

## CN/C(=N/CC1CCOC1)N[N+](=O)[O-] (stereo not given) [DINOTEFURAN]
[1]
  LD50: > 1300 mg/kg
[2]
  logP: -0.549
[3]
  LD50: 2280 mg/kg
[4]
  LD50: 2450 mg/kg
[5]
  solubility: 40 mg/mL (≈ 198 mM)
